Test results: US20060128699A1, “Novel pharmacophore for the discovery and testing of na,k-atpase inhibitor compositions and methods for their use in treating cardiovascular diseases and conditions” (priority 2002, published 2006)
Where “and” joins values, the source holds several entries; their conditions need not be identical. Identical values can stand only once.

Experiments:
[1] = target: T1, Na, K-ATPase (Ovis aries, UniProt P04074); assay: NKA assay started by addition of ATP; format: biochemical, lamb; settings: for IC50 / ratio (digoxin): assay started by addition of ATP; for ratio (digoxin): IC50_aver. relative to digoxin
T1 construct: Na, K-ATPase will be purified from the outer medulla of frozen lamb kidney; from tissue; host or cells: outer medulla of frozen lamb kidney
Excerpt: (§1) Briefly Na, K-ATPase will be purified from the outer medulla of frozen lamb kidney. Competitive binding assays will be performed in the presence and absence of varying concentrations of the potential inhibitors. Inhibition studies will be carried out with and without varying concentrations of the potential inhibitors, and the NADPH oxidation rate in the presence and absence of the inhibitors will be determined.

[2] = target: T1, Na, K-ATPase; assay: NKA assay started by addition of KCl; format: biochemical, lamb; settings: for ratio (digoxin): IC50_aver. relative to digoxin
Excerpt: as §1

[3] = target: rat 1α-subunit of the Na, K-ATPase (Rattus norvegicus, UniProt P06685); settings: cited from earlier work
[4] = target: human 1α-subunit of the Na, K-ATPase (Homo sapiens, UniProt P05023); settings: cited from earlier work
[5] = target: sheep 1α-subunit of the Na, K-ATPase, D121N mutant (Ovis aries, UniProt P04074, D126N); settings: D121N versus wild-type sheep; cited from earlier work
[6] = target: sheep 1α-subunit of the Na, K-ATPase, Q111R and N122D mutant (Ovis aries, UniProt P04074, N127D/Q116R); settings: Q111R and N122D versus wild-type sheep catalytic subunit; cited from earlier work
[7] = determination 2, read-out: IC50_2
[8] = determination 3, read-out: IC50_3
[9] = assay started by addition of KCl
[10] = assay started by addition of KCl, average, read-out: IC50_aver.
[11] = assay started by addition of KCl, determination 1, read-out: IC50_1
[12] = assay started by addition of KCl, determination 2, read-out: IC50_2
[13] = determination 1, read-out: IC50_1

Compound | ATPase inhibition (in words) [1] | IC50 ([1]; average, read-out: IC50_aver.) | IC50 [1, 7] [µM] | IC50 [1, 8] [µM] | ratio (digoxin) [2, 9] | ratio (digoxin) [1] | IC50 [1, 13] [µM] | other results
COc1cc2c(c(OC)c1)Sc1ccccc1C(=O)C2 [Compound 28] | strong ATPase inhibition | 359 µM and 38.1 µM | 42.5 | 36.3 | 6764 |  |  | IC50 ([1]; determination 4, read-out: IC50_4): 145 µM; IC50 [2, 10]: 67.6 µM; IC50 [2, 11]: 75.6 µM; IC50 [2, 12]: 59.7 µM
COc1cccc2c1Sc1ccccc1C(=O)C2 [Compound 27] |  | 203 µM | 102 | 120 |  | 497 | 386 | 
Oc1cc(O)c2c(c1)O[C@H](c1ccc(O)c(O)c1)[C@@H](O)C2 [Compound 9, (+)-Catechin Hydrate] |  | 270 µM | 253 |  |  | 664 | 287 | 
O=C1C=CC2C(=C1[N+](=O)[O-])Oc1c(ccc(O)c1[N+](=O)[O-])C2c1ccccc1C(=O)O (stereo not shown) [Compound 14, 4′-5′ Di nitroflorescein] | strong ATPase inhibition | 8.75 µM | 8.87 | 11.7 | 869 | 21.5 | 5.69 | IC50 ([2]; IC50_1, assay started by addition of KCl, determination 1): 7.81 µM; IC50 ([2]; IC50_2, assay started by addition of KCl, determination 2): 9.53 µM; IC50 ([2]; IC50_aver., assay started by addition of KCl, average): 8.69 µM
C[C@@H]1O[C@@H](O[C@H]2C[C@@H](O)[C@]3(CO)[C@H]4[C@H](O)C[C@]5(C)[C@@H](C6=CC(=O)OC6)CC[C@]5(O)[C@@H]4CC[C@]3(O)C2)[C@H](O)[C@H](O)[C@H]1O [ouabain] |  |  |  |  |  |  |  | sensitivity to ouabain inhibition (in words) ([3]; rat subunit): insensitive; loss in ouabain inhibition ([3]; rat α1-subunit): ~1000 fold; sensitivity to ouabain (in words) [4]: sensitive; decrease in sensitivity to ouabain [5]: 1000 fold; less sensitive to ouabain than wild-type [6]: 1150 fold
Cc1cc(O)c2c(c1)C(=O)c1cc(O)cc(O)c1C2=O [Compound 15, Emodin] |  | 89.8 µM | 75.5 | 162 |  | 220 | 32.2 | 
Lacmoid [Compound 19] | strong ATPase inhibition | 13.4 µM | 192 | 9.7 | 340 | 32.9 | 11.2 | IC50 [2, 10]: 3.4 µM; IC50 [2, 11]: 3.55 µM; IC50 [2, 12]: 3.25 µM
CC(CCc1ccc(O)cc1)NCCc1ccc(O)c(O)c1 (stereo not shown) [Compound 25, R—S Dobutamine] |  | 70.6 µM | 76.8 |  |  | 173 | 64.4 | 
